{"source": "patent US20250346572A1", "about": "“NON-ACID INHIBITORS OF INOSITOL HEXAKISPHOSPHATE KINASE (IP6K) AND METHODS OF USE THEREOF” (Lieber Institute, Inc., priority 2022, published 2025)", "origin": "cited, not measured here", "system": "Mice treated with HFD", "settings": "HFD for 8 weeks, then daily intraperitoneal 20 mg/kg TNP and HFD for 18 days"}
{"smiles": "O=[N+]([O-])c1ccc(CNc2nc(NCc3cccc(C(F)(F)F)c3)nc3nc[nH]c23)cc1", "note": "[TNP, N2-(m-trifluorobenzyl)-N6-(p-nitrobenzyl)purine]", "values": [{"measurement": "glucose tolerance and insulin sensitivity", "value": "improved glucose tolerance and insulin sensitivity"}, {"measurement": "serum insulin levels", "value": "lower serum insulin levels"}]}
